BindingDB's records for doi:10.1016/j.bmcl.2017.05.024 (Yeungnam University, 2017)

Target: Hypoxia-inducible factor 1-alpha (Homo sapiens, UniProt Q16665)
Test: ChEBML_1685544
Excerpt: Inhibition of hypoxia-induced HIF1alpha (unknown origin) transcriptional activity expressed in human HCT116 cells by HRE luciferase reporter gene assay

Hypoxia-inducible factor 1-alpha, sequence (Q16665 whole entry): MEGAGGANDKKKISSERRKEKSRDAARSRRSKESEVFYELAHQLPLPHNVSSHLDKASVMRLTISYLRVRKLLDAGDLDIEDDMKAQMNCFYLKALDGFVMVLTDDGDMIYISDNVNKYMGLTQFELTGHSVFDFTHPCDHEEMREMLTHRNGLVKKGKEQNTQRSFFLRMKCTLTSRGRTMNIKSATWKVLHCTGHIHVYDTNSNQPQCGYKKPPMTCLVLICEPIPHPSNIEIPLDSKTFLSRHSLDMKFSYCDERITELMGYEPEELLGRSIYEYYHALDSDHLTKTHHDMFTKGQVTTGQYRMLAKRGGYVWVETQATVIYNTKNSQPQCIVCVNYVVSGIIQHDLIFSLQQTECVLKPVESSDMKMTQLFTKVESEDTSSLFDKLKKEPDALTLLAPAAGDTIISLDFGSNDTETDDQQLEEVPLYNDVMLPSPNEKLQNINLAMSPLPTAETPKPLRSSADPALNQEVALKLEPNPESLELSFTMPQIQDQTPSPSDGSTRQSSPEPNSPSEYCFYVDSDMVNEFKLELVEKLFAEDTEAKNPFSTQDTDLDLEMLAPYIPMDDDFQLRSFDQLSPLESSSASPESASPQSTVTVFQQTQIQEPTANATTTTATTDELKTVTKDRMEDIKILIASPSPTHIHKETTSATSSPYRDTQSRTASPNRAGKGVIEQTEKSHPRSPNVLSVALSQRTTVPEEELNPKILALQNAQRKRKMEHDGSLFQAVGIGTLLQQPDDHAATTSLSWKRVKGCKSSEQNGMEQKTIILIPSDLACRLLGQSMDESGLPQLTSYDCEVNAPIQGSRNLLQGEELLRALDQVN

Structure (SMILES) | IC50 [µM]
CO/N=C(/C(=O)OC)c1ccccc1COc1cccc(OCC#N)c1 | > 20
CO/N=C(\C)c1cccc(OCc2ccccc2/C(=N\OC)C(=O)OC)c1 | 4.52
CO/N=C/c1ccc(OC)c(OCc2ccccc2/C(=N\OC)C(=O)OC)c1 | 14.9
CO/N=C(/C(=O)OC)c1ccccc1COc1cccc(O)c1 | 9.16

The next compounds have a lower IC50 than those just listed; values first:

IC50 [µM] | Structure (SMILES)
3.4 | CO/N=C/c1cccc(OCc2ccccc2/C(=N\OC)C(=O)OC)c1
0.6 | CO/N=C(/C(=O)OC)c1ccccc1COc1cccc(OCc2ccc(Cl)cc2)c1
0.87 | C=Cc1ccc(COc2cccc(OCc3ccccc3/C(=N\OC)C(=O)OC)c2)cc1
0.94 | CO/N=C(/C(=O)OC)c1ccccc1COc1cccc(OCc2cc(C(F)(F)F)cc(C(F)(F)F)c2)c1
1.12 | CO/N=C(/C(=O)OC)c1ccccc1COc1cccc(OCc2ccccc2)c1
